For 1 compound, inhibition results are on record in paper PMC7180948, “New Insights into 4-Anilinoquinazolines as Inhibitors of Cardiac Troponin I–Interacting Kinase (TNNi3K)” (Molecules, 2020).

What all share (assay): biochemical
Design in all cases: KINOMEscan competition binding panel (Eurofins DiscoverX), single concentration, percent inhibition
What all share (details): read-out: 15 at 1 µM % inhibition

In assay [1] the target is CASK (Homo sapiens, UniProt O14936). In a few lines: (§1)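 KINOMEscan binding panel of >400 kinases, run by Eurofins DiscoverX, with compounds tested at a single concentration of 1 µM.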
For assay [2], the target named is T1, RPS6KA4(Kin.Dom.1-N-terminal) (Homo sapiens, UniProt O75676).
T1 construct: Kin.Dom.1-N-terminal
The essentials:
as §1

Assay [3] has as its target T2, JNK1 (Homo sapiens, UniProt P45983).
T2 construct: gene MAPK8
In a few lines: as §1

The target in assay [4] is T3, DCAMKL1 (Homo sapiens, UniProt O15075).
T3 construct: gene DCLK1
The essentials:
as §1

Assay [5] deals with HIPK2 (Homo sapiens, UniProt Q9H2X6). In a few lines:
as §1

The target of assay [6] is T4, YANK1 (Homo sapiens, UniProt Q8WU08).
T4 construct: gene STK32A
The essentials:
as §1

The target in assay [7] is T5, MST2 (Homo sapiens, UniProt Q13188).
T5 construct: gene STK3
In a few lines:
as §1

For assay [8], the target named is FGFR3 (Homo sapiens, UniProt P22607). The essentials:
as §1

In assay [9] the target is TNK1 (Homo sapiens, UniProt Q13470). In a few lines:
as §1

Assay [10] has as its target T6, ASK1 (Homo sapiens, UniProt Q99683).
T6 construct: gene MAP3K5
In a few lines: as §1

Assay [11] addresses SRPK2 (Homo sapiens, UniProt P78362). The essentials: as §1
The target in assay [12] is T7, RSK1(Kin.Dom.1-N-terminal) (Homo sapiens, UniProt Q15418).
T7 construct: gene RPS6KA1; Kin.Dom.1-N-terminal
The essentials:
as §1

Assay [13] addresses TAOK2 (Homo sapiens, UniProt Q9UL54). The essentials: as §1
The target in assay [14] is T8, JNK2 (Homo sapiens, UniProt P45984).
T8 construct: gene MAPK9
In a few lines: as §1

For assay [15], the target named is PAK3 (Homo sapiens, UniProt O75914). The essentials:
as §1

Assay [16] addresses RIPK4 (Homo sapiens, UniProt P57078). In a few lines: as §1
Assay [17] addresses PIK3CA(I800L) (Homo sapiens, UniProt P42336, I800L). The essentials:
as §1

The target of assay [18] is LATS2 (Homo sapiens, UniProt Q9NRM7). In a few lines: as §1
Assay [19] addresses T9, RSK4(Kin.Dom.2-C-terminal) (Homo sapiens, UniProt Q9UK32).
T9 construct: gene RPS6KA6; Kin.Dom.2-C-terminal
The essentials:
as §1

Assay [20] has as its target TAOK1 (Homo sapiens, UniProt Q7L7X3). In a few lines:
as §1

The target in assay [21] is PLK2 (Homo sapiens, UniProt Q9NYY3). In a few lines: as §1
Assay [22] has as its target T10, ZAK (Homo sapiens, UniProt Q9NYL2).
T10 construct: gene MAP3K20
In a few lines: as §1

The target of assay [23] is TNK2 (Homo sapiens, UniProt Q07912). In a few lines: as §1
In assay [24] the target is T11, JAK1(JH1domain-catalytic) (Homo sapiens, UniProt P23458).
T11 construct: JH1domain-catalytic
In a few lines:
as §1

Chain of TNK1 (Q13470 whole entry): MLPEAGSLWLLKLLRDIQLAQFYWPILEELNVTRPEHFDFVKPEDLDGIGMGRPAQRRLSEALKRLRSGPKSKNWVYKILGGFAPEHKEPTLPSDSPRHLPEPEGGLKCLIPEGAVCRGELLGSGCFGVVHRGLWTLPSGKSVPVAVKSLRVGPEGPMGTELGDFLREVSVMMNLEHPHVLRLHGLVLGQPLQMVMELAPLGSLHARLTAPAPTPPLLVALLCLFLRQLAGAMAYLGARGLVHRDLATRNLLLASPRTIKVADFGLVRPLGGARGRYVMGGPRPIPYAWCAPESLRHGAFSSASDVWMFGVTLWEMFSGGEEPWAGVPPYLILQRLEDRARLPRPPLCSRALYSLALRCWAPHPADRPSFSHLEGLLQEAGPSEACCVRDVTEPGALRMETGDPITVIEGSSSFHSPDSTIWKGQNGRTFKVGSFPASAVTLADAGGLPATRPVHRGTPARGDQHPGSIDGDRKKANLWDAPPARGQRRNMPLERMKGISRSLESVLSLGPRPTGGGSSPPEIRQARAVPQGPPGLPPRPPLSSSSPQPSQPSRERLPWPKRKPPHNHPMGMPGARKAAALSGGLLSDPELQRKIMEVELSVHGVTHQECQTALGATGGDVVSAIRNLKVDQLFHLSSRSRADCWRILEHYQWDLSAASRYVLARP
Chain of CASK (O14936 whole entry): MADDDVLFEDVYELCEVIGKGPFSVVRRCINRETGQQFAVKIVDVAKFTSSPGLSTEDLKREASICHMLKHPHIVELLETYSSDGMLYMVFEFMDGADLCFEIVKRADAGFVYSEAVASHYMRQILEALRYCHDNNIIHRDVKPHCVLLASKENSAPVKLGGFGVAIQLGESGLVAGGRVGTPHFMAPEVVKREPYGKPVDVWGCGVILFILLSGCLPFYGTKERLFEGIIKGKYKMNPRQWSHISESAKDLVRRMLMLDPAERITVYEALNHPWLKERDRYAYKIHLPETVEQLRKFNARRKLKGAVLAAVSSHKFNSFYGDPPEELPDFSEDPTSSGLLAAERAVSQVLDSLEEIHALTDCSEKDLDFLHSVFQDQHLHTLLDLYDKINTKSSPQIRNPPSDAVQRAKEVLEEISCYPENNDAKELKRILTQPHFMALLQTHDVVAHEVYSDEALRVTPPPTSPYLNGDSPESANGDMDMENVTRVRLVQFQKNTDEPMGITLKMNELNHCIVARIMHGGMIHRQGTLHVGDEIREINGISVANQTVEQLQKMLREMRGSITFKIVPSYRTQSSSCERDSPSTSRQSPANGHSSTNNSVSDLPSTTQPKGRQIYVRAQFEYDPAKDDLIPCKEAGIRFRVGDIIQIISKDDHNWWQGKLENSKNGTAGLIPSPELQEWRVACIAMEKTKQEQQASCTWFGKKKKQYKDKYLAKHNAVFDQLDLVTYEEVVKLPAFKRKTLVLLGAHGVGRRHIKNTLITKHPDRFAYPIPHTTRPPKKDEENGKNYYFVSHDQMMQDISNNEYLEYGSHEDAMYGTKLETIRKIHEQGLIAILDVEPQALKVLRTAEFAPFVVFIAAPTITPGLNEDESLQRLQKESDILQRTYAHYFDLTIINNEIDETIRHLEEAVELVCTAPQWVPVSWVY
Chain of PLK2 (Q9NYY3 whole entry): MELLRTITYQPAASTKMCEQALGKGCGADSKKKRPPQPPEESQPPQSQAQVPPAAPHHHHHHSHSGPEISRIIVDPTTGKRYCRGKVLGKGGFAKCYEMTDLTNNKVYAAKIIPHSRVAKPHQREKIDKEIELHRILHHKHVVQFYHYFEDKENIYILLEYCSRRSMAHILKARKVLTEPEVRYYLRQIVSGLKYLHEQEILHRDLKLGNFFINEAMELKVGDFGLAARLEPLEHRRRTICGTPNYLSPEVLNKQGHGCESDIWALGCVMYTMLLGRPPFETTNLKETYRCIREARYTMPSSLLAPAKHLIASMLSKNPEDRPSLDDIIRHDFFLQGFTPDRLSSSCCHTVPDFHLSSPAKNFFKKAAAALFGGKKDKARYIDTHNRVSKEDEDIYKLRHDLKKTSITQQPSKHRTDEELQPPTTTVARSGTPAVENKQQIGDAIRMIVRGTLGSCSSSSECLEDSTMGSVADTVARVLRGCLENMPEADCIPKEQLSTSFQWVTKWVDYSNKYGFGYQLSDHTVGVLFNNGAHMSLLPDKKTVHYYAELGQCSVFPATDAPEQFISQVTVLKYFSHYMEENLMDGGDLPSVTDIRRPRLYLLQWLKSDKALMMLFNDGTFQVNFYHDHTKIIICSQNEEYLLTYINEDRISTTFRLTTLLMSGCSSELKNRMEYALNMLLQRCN
Chain of FGFR3 (P22607 whole entry): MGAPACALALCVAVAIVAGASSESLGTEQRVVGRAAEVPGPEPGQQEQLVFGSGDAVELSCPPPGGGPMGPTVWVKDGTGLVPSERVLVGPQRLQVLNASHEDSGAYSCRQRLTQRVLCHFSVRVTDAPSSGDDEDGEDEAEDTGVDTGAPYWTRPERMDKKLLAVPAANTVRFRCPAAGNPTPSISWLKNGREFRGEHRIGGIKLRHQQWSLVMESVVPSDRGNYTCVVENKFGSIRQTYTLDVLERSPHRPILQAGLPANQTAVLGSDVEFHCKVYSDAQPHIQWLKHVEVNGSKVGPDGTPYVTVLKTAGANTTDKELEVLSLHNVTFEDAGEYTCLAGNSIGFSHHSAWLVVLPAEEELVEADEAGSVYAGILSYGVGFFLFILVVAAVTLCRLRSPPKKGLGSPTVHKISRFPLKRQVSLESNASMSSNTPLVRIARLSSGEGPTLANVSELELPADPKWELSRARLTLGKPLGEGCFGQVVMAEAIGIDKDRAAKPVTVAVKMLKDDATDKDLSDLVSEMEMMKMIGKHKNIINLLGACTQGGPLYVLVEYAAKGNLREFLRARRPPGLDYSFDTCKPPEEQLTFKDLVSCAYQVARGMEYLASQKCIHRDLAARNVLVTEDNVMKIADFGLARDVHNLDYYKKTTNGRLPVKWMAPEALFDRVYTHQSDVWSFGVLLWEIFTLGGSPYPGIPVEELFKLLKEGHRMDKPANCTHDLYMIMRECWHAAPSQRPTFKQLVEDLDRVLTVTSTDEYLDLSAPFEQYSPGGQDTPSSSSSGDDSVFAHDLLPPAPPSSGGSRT
Chain of PIK3CA(I800L) (P42336 whole entry I800L): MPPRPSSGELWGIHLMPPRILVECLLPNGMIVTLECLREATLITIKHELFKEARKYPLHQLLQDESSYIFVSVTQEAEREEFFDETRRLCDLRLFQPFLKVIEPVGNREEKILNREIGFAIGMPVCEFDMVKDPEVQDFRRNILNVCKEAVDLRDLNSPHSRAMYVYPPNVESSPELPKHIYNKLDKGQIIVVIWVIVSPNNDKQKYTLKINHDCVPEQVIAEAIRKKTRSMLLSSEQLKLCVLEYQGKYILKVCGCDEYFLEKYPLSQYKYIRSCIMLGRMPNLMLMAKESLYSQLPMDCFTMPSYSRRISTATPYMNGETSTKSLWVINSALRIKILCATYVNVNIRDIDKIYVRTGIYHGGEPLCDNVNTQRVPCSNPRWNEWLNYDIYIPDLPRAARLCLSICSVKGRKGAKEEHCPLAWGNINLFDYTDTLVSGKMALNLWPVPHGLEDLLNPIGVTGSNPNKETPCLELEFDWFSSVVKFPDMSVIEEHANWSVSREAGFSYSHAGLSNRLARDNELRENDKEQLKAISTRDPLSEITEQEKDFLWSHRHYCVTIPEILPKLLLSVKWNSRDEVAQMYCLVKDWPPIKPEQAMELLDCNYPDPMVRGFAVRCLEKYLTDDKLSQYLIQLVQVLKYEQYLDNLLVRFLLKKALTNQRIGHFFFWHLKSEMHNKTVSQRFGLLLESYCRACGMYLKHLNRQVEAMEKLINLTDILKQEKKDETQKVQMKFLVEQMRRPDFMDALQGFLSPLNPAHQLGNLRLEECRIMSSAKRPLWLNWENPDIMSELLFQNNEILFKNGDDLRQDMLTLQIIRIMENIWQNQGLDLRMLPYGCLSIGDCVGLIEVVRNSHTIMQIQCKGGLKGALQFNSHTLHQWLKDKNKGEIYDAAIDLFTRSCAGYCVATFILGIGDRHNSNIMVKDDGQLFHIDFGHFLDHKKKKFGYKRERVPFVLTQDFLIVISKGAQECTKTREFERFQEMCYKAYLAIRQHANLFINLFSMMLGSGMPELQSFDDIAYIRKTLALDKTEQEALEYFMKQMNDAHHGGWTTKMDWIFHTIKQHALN
T8 sequence (P45984 whole entry): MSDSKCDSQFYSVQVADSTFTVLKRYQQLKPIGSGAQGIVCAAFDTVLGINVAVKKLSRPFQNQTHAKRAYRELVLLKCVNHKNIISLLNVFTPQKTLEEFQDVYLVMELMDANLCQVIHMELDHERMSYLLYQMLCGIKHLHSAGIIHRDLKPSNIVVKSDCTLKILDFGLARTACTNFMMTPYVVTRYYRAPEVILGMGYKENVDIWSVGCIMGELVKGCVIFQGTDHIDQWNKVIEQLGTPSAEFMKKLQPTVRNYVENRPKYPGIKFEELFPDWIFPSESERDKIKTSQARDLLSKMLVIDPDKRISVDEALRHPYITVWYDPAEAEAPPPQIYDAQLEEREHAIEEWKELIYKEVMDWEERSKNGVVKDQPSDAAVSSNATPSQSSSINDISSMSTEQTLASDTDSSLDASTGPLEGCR
T4 sequence (Q8WU08 whole entry): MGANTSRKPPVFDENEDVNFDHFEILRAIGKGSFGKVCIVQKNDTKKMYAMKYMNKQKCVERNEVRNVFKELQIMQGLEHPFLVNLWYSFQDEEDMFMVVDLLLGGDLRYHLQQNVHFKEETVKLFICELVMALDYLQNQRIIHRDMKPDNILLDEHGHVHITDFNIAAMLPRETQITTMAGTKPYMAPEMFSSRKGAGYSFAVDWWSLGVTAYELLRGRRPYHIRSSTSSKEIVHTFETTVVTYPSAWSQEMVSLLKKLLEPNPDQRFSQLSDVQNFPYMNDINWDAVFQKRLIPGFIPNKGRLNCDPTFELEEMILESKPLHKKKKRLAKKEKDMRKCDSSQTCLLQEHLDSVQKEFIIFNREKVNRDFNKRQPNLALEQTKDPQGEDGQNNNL

In general, inhibition refers to the relative decrease from the control value, in per cent. As for `CNS(=O)(=O)c1ccc(N(C)C)c(Nc2nc(C)nc3cc(OC)c(OC)cc23)c1` [compound 15, 3-((6,7-dimethoxy-2-methylquinazolin-4-yl)amino)-4-(dimethylamino)-N-methylbenzenesulfonamide], the inhibition at 1 µM in assay [1] was 26%; in assay [2] it was 3%; in assay [3], 14%; in assay [4], 9%; in assay [5], 9%; in assay [6], 0%. Besides, the inhibition at 1 µM in assay [7] was found to be 4%; in assay [8], 1%; in assay [9], 35%; in assay [10], 0%; in [11], 16%; in assay [12] it was 0%. Besides, the inhibition at 1 µM in assay [13] is 15%; in assay [14] it was 4%; in [15], 4%; in [16] it was 8%; in assay [17], 38%; in [18], 14%. In addition, the inhibition at 1 µM in assay [19] came out at 3%; in assay [20], 15%; in assay [21], 23%; in assay [22] it was 1%; in [23], 0%; in [24] it was 0%.
